# Test results reported in US20090176817A1, “Method of Treatment of Diarrhea-Predominant Irritable Bowel Syndrome in a Subject” (priority 2005, published 2009).
# Test system: diarrhea-predominant IBS subjects
# Experiment: Study S241.3.009: weekly diary questions on adequate relief
# Type: in vivo, human
# Details: ITT, 2 mg TID; for Number of months a subject was a responder: Three months (IBS symptoms) / Number of months a subject was a responder: Two months (Abdominal pain/discomfort) / Number of months a subject was a responder: Two months (Abnormal bowel habits) / Number of months a subject was a responder: Two months (IBS symptoms) / Number of months a subject was a responder: Zero months (Abdominal pain/discomfort) / Number of months a subject was a responder: Zero months (Abnormal bowel habits) / Number of months a subject was a responder: Zero months (IBS symptoms) / Number of months a subject was a responder: One month (Abdominal pain/discomfort) / Number of months a subject was a responder: One month (Abnormal bowel habits) / Number of months a subject was a responder: One month (IBS symptoms) / Number of months a subject was a responder: Three months (Abdominal pain/discomfort) / Number of months a subject was a responder: Three months (Abnormal bowel habits): Months 1 to 3, monthly LOCF; for Overall responder rate, adequate relief of IBS symptoms / Overall responder rate, adequate relief of abdominal pain/discomfort / Overall responder rate, adequate relief of abnormal bowel habits: 26-week treatment period, observed case
# Description: Study S241.3.009 was a Phase III, a double-blind, placebo-controlled, randomized, multinational study to investigate the safety and efficacy of 2 mg TID of cilansetron over 26 weeks in diarrhea-predominant IBS subjects. The study was conducted in 146 multinational study centers. A total of 1307 subjects consented to participate, and 806 subjects were randomized. A total of 792 subjects were analyzed for efficacy and 799 subjects were analyzed for safety. Diagnosis and main criteria for inclusion were IBS subjects satisfying the Rome I criteria (1992); the diarrhea-predominant sub-population of the Rome II criteria; and a minimum abdominal pain/discomfort, stool frequency and consistency determined during the run-in period. Subjects were treated with cilansetron 2 mg tablets given orally TID or matching placebo tablets given orally TID for 26 weeks.
# The primary efficacy parameter was the overall response rate for IBS symptoms, based on the weekly question concerning adequate relief of IBS symptoms (abdominal pain/discomfort, abnormal bowel habits) over the 26 weeks period. A responder was a subject who responded “yes” at least 50% of the time during his/her treatment period, with minimum treatment duration of four weeks. The two main secondary efficacy parameters were overall responder rate based on the weekly question on adequate relief of abdominal pain/discomfort and abnormal bowel habits during the 26-week treatment period. The onset of action of cilansetron was also examined using daily diary data (stool frequency, and ratings of urgency and severity) during the initial 8 weeks of trial participation. An additional key secondary efficacy parameter was the number of months (one month equals four weeks) up to six months (24-weeks) that a subject was a responder for IBS symptoms, where a responder was defined as a subject who answered the weekly question with “yes” at least twice for that month. The responder rate for the weekly diary questions on adequate relief at each month and all months, the adequate relief rate, the number of subjects with adequate relief by week, daily diary questions, IBS-QOL scores, and the interruption of activities were also assessed. Safety was evaluated by physical examination, ECG, vital signs, laboratory evaluations, concomitant medications, and AEs.
# Studies S24 1.3.OO6, S24 1.3.0 1 1, and S24 1.3.009 used the following efficacy measurements: • The subjects answered the following three questions with “yes” or “no” using a phone diary at the end of each week: • a) During the last week, did you experience adequate relief of your IBS symptoms, such as abdominal pain, abdominal discomfort, abnormal bowel habits? • b) During the last week, did you experience adequate relief of your abdominal pain and/or discomfort? • c) During the last week, did you experience adequate relief of your abnormal bowel habits? • The subjects rated the following symptoms using the phone diary at the end of each day: • abdominal pain/discomfort (five-point scale); • stool consistency (seven-point Bristol Stool Scale); • stool frequency (number of bowel movements each day); • urgency (five-point scale); • straining (yes or no); • feeling of incomplete defecation (yes or no); • bloating or feeling of abdominal distension (five-point scale). • In Studies S241 A006 and S241.3.009, subjects completed the IBS-QOL Survey at Baseline (Day 1) and at the end of treatment. In Study S24 1.3.0 1 1, subjects completed the IBS-QOL Survey at Baseline (Day 1), at the end of the three-month treatment period, and at the end of rerandomized treatment.
# In all three pivotal efficacy studies, the primary and main secondary efficacy parameters were based on the weekly diary questions on adequate relief and included the following: • 1. Number of months (one month equals four weeks) that a subject was a responder for the weekly diary questions on adequate relief. […]
# [1] = Baseline severity of IBS: non-severe
# [2] = Baseline severity of IBS: severe
# [3] = Duration of IBS: >24 months to ≦48 months, monthly LOCF imputation
structure (smiles),measurement,setting,value
"Cc1nccn1C[C@H]1CCc2c(c3cccc4c3n2CCC4)C1=O [Cilansetron, (R)-(−)-4,5,6,8,9,10-hexahydro-10-[(2-methyl-1H-imidazol-1-yl)methyl]-11H-pyrido-[3,2,1-jk]-carbazol-11-one]",Number of months a subject was a responder: Three months (IBS symptoms),Baseline BMI: <30 kg/m^2,131 (40) n (%)
same,Number of months a subject was a responder: Two months (Abdominal pain/discomfort),Baseline BMI: <30 kg/m^2,58 (18) n (%)
same,Number of months a subject was a responder: Two months (Abnormal bowel habits),Baseline BMI: <30 kg/m^2,69 (21) n (%)
same,Number of months a subject was a responder: Two months (IBS symptoms),Baseline BMI: <30 kg/m^2,64 (19) n (%)
same,Number of months a subject was a responder: Zero months (Abdominal pain/discomfort),Baseline BMI: <30 kg/m^2,82 (25) n (%)
same,Number of months a subject was a responder: Zero months (Abnormal bowel habits),Baseline BMI: <30 kg/m^2,78 (24) n (%)
same,Number of months a subject was a responder: Zero months (IBS symptoms),Baseline BMI: <30 kg/m^2,86 (26) n (%)
same,"Overall responder rate, adequate relief of IBS symptoms",Baseline BMI: ≧30 kg/m^2,27 (42) n (%)
same,"Overall responder rate, adequate relief of abdominal pain/discomfort",Baseline BMI: ≧30 kg/m^2,32 (49) n (%)
same,"Overall responder rate, adequate relief of abnormal bowel habits",Baseline BMI: ≧30 kg/m^2,33 (51) n (%)
same,Number of months a subject was a responder: One month (Abdominal pain/discomfort),Baseline BMI: ≧30 kg/m^2,10 (15) n (%)
same,Number of months a subject was a responder: One month (Abnormal bowel habits),Baseline BMI: ≧30 kg/m^2,10 (15) n (%)
same,Number of months a subject was a responder: One month (IBS symptoms),Baseline BMI: ≧30 kg/m^2,6 (9) n (%)
same,Number of months a subject was a responder: Three months (Abdominal pain/discomfort),Baseline BMI: ≧30 kg/m^2,20 (31) n (%)
same,Number of months a subject was a responder: Three months (Abnormal bowel habits),Baseline BMI: ≧30 kg/m^2,21 (32) n (%)
same,Number of months a subject was a responder: Three months (IBS symptoms),Baseline BMI: ≧30 kg/m^2,19 (29) n (%)
same,Number of months a subject was a responder: Two months (Abdominal pain/discomfort),Baseline BMI: ≧30 kg/m^2,12 (18) n (%)
same,Number of months a subject was a responder: Two months (Abnormal bowel habits),Baseline BMI: ≧30 kg/m^2,14 (22) n (%)
same,Number of months a subject was a responder: Two months (IBS symptoms),Baseline BMI: ≧30 kg/m^2,16 (25) n (%)
same,Number of months a subject was a responder: Zero months (Abdominal pain/discomfort),Baseline BMI: ≧30 kg/m^2,23 (35) n (%)
same,Number of months a subject was a responder: Zero months (Abnormal bowel habits),Baseline BMI: ≧30 kg/m^2,20 (31) n (%)
same,Number of months a subject was a responder: Zero months (IBS symptoms),Baseline BMI: ≧30 kg/m^2,24 (37) n (%)
same,"Overall responder rate, adequate relief of IBS symptoms",[1],149 (61) n (%)
same,"Overall responder rate, adequate relief of abdominal pain/discomfort",[1],150 (61) n (%)
same,"Overall responder rate, adequate relief of abnormal bowel habits",[1],161 (65) n (%)
same,Number of months a subject was a responder: One month (Abdominal pain/discomfort),[1],42 (17) n (%)
same,Number of months a subject was a responder: One month (Abnormal bowel habits),[1],31 (13) n (%)
same,Number of months a subject was a responder: One month (IBS symptoms),[1],37 (15) n (%)
same,Number of months a subject was a responder: Three months (Abdominal pain/discomfort),[1],102 (41) n (%)
same,Number of months a subject was a responder: Three months (Abnormal bowel habits),[1],104 (42) n (%)
same,Number of months a subject was a responder: Three months (IBS symptoms),[1],95 (39) n (%)
same,Number of months a subject was a responder: Two months (Abdominal pain/discomfort),[1],41 (17) n (%)
same,Number of months a subject was a responder: Two months (Abnormal bowel habits),[1],54 (22) n (%)
same,Number of months a subject was a responder: Two months (IBS symptoms),[1],51 (21) n (%)
same,Number of months a subject was a responder: Zero months (Abdominal pain/discomfort),[1],61 (25) n (%)
same,Number of months a subject was a responder: Zero months (Abnormal bowel habits),[1],57 (23) n (%)
same,Number of months a subject was a responder: Zero months (IBS symptoms),[1],63 (26) n (%)
same,"Overall responder rate, adequate relief of IBS symptoms",[2],84 (57) n (%)
same,"Overall responder rate, adequate relief of abdominal pain/discomfort",[2],88 (59) n (%)
same,"Overall responder rate, adequate relief of abnormal bowel habits",[2],91 (61) n (%)
same,Number of months a subject was a responder: One month (Abdominal pain/discomfort),[2],19 (13) n (%)
same,Number of months a subject was a responder: One month (Abnormal bowel habits),[2],18 (12) n (%)
same,Number of months a subject was a responder: One month (IBS symptoms),[2],18 (12) n (%)
same,Number of months a subject was a responder: Three months (Abdominal pain/discomfort),[2],56 (38) n (%)
same,Number of months a subject was a responder: Three months (Abnormal bowel habits),[2],60 (41) n (%)
same,Number of months a subject was a responder: Three months (IBS symptoms),[2],54 (36) n (%)
same,Number of months a subject was a responder: Two months (Abdominal pain/discomfort),[2],29 (20) n (%)
same,Number of months a subject was a responder: Two months (Abnormal bowel habits),[2],29 (20) n (%)
same,Number of months a subject was a responder: Two months (IBS symptoms),[2],29 (20) n (%)
same,Number of months a subject was a responder: Zero months (Abdominal pain/discomfort),[2],44 (30) n (%)
same,Number of months a subject was a responder: Zero months (Abnormal bowel habits),[2],41 (28) n (%)
same,Number of months a subject was a responder: Zero months (IBS symptoms),[2],47 (32) n (%)
same,"Number of months a subject was a responder during Months 1 to 3: Abdominal pain/discomfort, One month",[3],14 (15) n (%)
same,"Number of months a subject was a responder during Months 1 to 3: Abdominal pain/discomfort, Three months",[3],37 (39) n (%)
same,"Number of months a subject was a responder during Months 1 to 3: Abdominal pain/discomfort, Two months",[3],19 (20) n (%)
same,"Number of months a subject was a responder during Months 1 to 3: Abdominal pain/discomfort, Zero months",[3],26 (27) n (%)
same,"Number of months a subject was a responder during Months 1 to 3: Abnormal bowel habits, One month",[3],11 (11) n (%)
same,"Number of months a subject was a responder during Months 1 to 3: Abnormal bowel habits, Three months",[3],36 (38) n (%)
same,"Number of months a subject was a responder during Months 1 to 3: Abnormal bowel habits, Two months",[3],25 (26) n (%)
same,"Number of months a subject was a responder during Months 1 to 3: Abnormal bowel habits, Zero months",[3],24 (25) n (%)
